The source made the active and inactive calls. The calls are words filed in the database; no cut-off is given here.
Legend:
[1] = Antioxidant activity assessed as DPPH radical scavenging activity after 1 hr; format: physicochemical
[2] = Antioxidant activity assessed as glutathione peroxidase-like activity measured as time required to oxidize dithiothretol by 50% after addition of H2O2 at 3.24 umol; format: physicochemical
A-375 = experiment: Cytotoxicity against human A375 cells assessed as cell growth inhibition after 72 hrs by MTT assay; format: functional, cell-based; conditions: A-375, 72 h
HCT-15 = experiment: Cytotoxicity against human HCT15 cells assessed as cell growth inhibition after 72 hrs by MTT assay; format: functional, cell-based; conditions: HCT-15, 72 h
[3] = Cytotoxicity against human BxPC3 cells assessed as cell growth inhibition after 72 hrs by MTT assay; format: functional, cell-based; conditions: BXPC-3, 72 h
MCF7 [4] = experiment: Cytotoxicity against human MCF7 cells assessed as cell growth inhibition after 72 hrs by MTT assay; format: functional, cell-based; conditions: MCF7, 72 h
[5] = Cytotoxicity against human MCF7/ADR cells assessed as cell growth inhibition after 72 hrs by MTT assay; format: functional, cell-based; conditions: NCI/ADR-RES
A-431 [6] = experiment: Cytotoxicity against human A431 cells assessed as cell growth inhibition after 72 hrs by MTT assay; format: functional, cell-based; conditions: A-431, 72 h
A-431 [7] = experiment: Cytotoxicity against cisplatin-resistant human A431 cells assessed as cell growth inhibition after 72 hrs by MTT assay; format: functional, cell-based; conditions: A-431, 72 h
2008 = experiment: Cytotoxicity against human 2008 cells assessed as cell growth inhibition after 72 hrs by MTT assay; format: functional, cell-based; conditions: Homo sapiens, 2008, 72 h
[8] = Cytotoxicity against human C13 cells assessed as cell growth inhibition after 72 hrs by MTT assay; format: functional, cell-based; conditions: C13, 72 h
NCI/ADR-RES [9] = experiment: Resistance factor, ratio of IC50 for human MCF7/ADR cells to IC50 for human MCF7 cells; format: functional
A-431 [10] = experiment: Resistance factor, ratio of IC50 for cisplatin-resistant human A431 cells to IC50 for human A431 cells; format: functional
C13 [11] = experiment: Resistance factor, ratio of IC50 for cisplatin-resistant human C13 cells to IC50 for human 2008 cells; format: functional
HEK293 [12] = experiment: Cytotoxicity against HEK293 cells assessed as cell growth inhibition after 72 hrs by MTT assay; format: cell-based; conditions: Homo sapiens, HEK293, 72 h
HEK293 [13] = experiment: Selectivity index, ratio of IC50 for HEK293 cells to IC50 for human A375 cells; format: functional
HEK293 [14] = experiment: Selectivity index, ratio of IC50 for HEK293 cells to IC50 for human HCT15 cells; format: functional
HEK293 [15] = experiment: Selectivity index, ratio of IC50 for HEK293 cells to IC50 for human BxPC3 cells; format: functional
HEK293 [16] = experiment: Selectivity index, ratio of IC50 for HEK293 cells to IC50 for human MCF7 cells; format: functional
NCI/ADR-RES [17] = experiment: Selectivity index, ratio of IC50 for HEK293 cells to IC50 for human MCF7/ADR cells; format: functional
HEK293 [18] = experiment: Selectivity index, ratio of IC50 for HEK293 cells to IC50 for human A431 cells; format: functional
HEK293 [19] = experiment: Selectivity index, ratio of IC50 for HEK293 cells to IC50 for cisplatin-resistant human A431 cells; format: functional
HEK293 [20] = experiment: Selectivity index, ratio of IC50 for HEK293 cells to IC50 for human 2008 cells; format: functional
C13 [21] = experiment: Selectivity index, ratio of IC50 for HEK293 cells to IC50 for human C13 cells; format: functional
MCF7 [22] = experiment: Anticlonogenic activity against human MCF7 cells assessed as inhibition of clonogenic expansion after 6 hrs; format: functional, cell-based
MCF7 [23] = experiment: Drug uptake in human MCF7 cells assessed as intracellular Se accumulation at 12.5 to 25 uM after 12 to 24 hrs by GF-AAS analysis; format: ADME, cell-based; conditions: mcf7, 25 µM
[24] = molecular target: T1, Thioredoxin reductase (Homo sapiens) (UniProt Q16881+Q9NNW7+Q86VQ6); experiment: Inhibition of thioredoxin reductase activity in human MCF7 cells at 20 uM after 24 hrs by DTNB reduction assay; format: cell-based
[25] = molecular target: T1, Thioredoxin reductase (Homo sapiens); experiment: Increase in thioredoxin reductase activity in HEK293 cells at 0.0625 to 0.625 uM after 24 hrs by DTNB reduction assay; format: cell-based; parameters: scale not given: the % may be the effect or the level left
[26] = molecular target: T2, Glutathione reductase, mitochondrial (Homo sapiens) (UniProt P00390); experiment: Effect on glutathione reductase activity in human MCF7 cells using GSSG as substrate at 1.25 to 20 uM after 24 hrs by spectrophotometric analysis; format: cell-based
T2 sequence (whole entry): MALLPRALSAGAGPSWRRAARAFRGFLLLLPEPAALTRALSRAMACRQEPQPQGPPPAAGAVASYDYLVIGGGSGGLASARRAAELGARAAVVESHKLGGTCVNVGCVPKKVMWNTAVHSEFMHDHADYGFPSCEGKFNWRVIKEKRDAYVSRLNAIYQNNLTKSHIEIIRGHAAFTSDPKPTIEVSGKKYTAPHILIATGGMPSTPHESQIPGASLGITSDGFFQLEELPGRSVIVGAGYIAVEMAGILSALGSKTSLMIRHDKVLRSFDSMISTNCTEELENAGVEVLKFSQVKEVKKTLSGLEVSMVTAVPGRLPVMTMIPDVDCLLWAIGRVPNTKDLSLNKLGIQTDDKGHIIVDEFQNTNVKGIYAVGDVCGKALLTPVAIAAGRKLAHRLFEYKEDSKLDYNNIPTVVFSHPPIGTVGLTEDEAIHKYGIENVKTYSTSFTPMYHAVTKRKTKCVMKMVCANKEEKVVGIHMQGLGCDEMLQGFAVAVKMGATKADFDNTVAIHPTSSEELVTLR

MCF7 [27] = experiment: Effect on glutathione peroxidase activity in human MCF7 cells using tert-butyl hydroperoxide and GSH as substrate at 1.25 to 20 uM after 24 hrs by spectrophotometric analysis; format: cell-based
MCF7 [28] = experiment: Decrease in total glutathione level in human MCF7 cells at IC50 after 48 hrs by spectrophotometric analysis; format: functional
MCF7 [29] = experiment: Increase in oxidized glutathione level in human MCF7 cells at IC50 after 48 hrs by spectrophotometric analysis; format: functional
MCF7 [30] = experiment: Decrease in total sulfhydryl gropus in human MCF7 cells at IC50 after 24 hrs by DTNB reduction assay; format: functional
MCF7 [31] = experiment: Induction of apoptosis in human MCF7 cells assessed as brightly stained nuclei, chromatin condensation and fragmentation at IC50 after 48 hrs by Hoechst 33258/PI fluorescent staining analysis; format: functional, cell-based
MCF7 [32] = experiment: Induction of apoptosis in human MCF7 cells assessed as caspase-3 activation using DEVD-AFC as substrate at IC50 after 48 hrs by spectrofluorimeter analysis; format: functional
MCF7 [33] = experiment: Induction of apoptosis in human MCF7 cells assessed as decrease in mitochondrial membrane potential at IC50 after 48 hrs by flow cytometry; format: functional
MCF7 [34] = experiment: Increase in oxidant species production in human MCF7 cells at 25 uM by CM-DCFDA based fluorescence plate reader analysis; format: functional, cell-based

Structure (SMILES): Oc1cc(O)c2c(=[Se])cc(-c3ccccc3)oc2c1
- IC50 [1]: 659000 nM
- Time [2]: 3.62 min
- IC50 (A-375): 1090 nM
- IC50 (HCT-15): 3170 nM
- IC50 [3]: 2310 nM
- IC50 (MCF7 [4]): 2250 nM
- IC50 [5]: 1960 nM
- IC50 (A-431 [6]): 1610 nM
- IC50 (A-431 [7]): 3180 nM
- IC50 2008: 2870 nM
- IC50 [8]: 4040 nM
- Ratio IC50 (NCI/ADR-RES [9]): 0.9
- Ratio IC50 (A-431 [10]): 2
- Ratio IC50 (C13 [11]): 1.4
- IC50 (HEK293 [12]): 8130 nM
- Ratio IC50 (HEK293 [13]): 3.7
- Ratio IC50 (HEK293 [14]): 3.7
- Ratio IC50 (HEK293 [15]): 3.7
- Ratio IC50 (HEK293 [16]): 3.7
- Ratio IC50 (NCI/ADR-RES [17]): 3.7
- Ratio IC50 (HEK293 [18]): 3.7
- Ratio IC50 (HEK293 [19]): 3.7
- Ratio IC50 (HEK293 [20]): 3.7
- Ratio IC50 (C13 [21]): 3.7
- inhibition (MCF7 [22]): Active
- Drug uptake (MCF7 [23]): Active
- inhibition [24]: 75%
- Activity [25]: 35%
- Activity [26]: inactive
- Activity (MCF7 [27]): inactive
- inhibition (INH) (MCF7 [28]): 60%
- fold change (FC) (MCF7 [29]): 4
- inhibition (INH) (MCF7 [30]): 60%
- Activity (MCF7 [31]): Active
- fold change (FC) (MCF7 [32]): 4
- fold change (FC) (MCF7 [33]): 4
- Activity (MCF7 [34]): Active
